Data published in the supplement of paper PMC10627819.

Assays:
S. aureus Newman [1] = experiment: fitness (endpoint OD595 vs no drug) (fraction); higher = more growth
Procedure, shortened: (§1)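 In 384-well plates at 37 °C, cultures began at OD595 0.01 in 30 µl, with 55 µl used for S. pneumoniae. OD595 readings every 30 min for 14 h were corrected by the first reading. Fitness divides the stationary-phase transition optical density by the robust mean of no-drug control wells. The result is capped at 1.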

B. subtilis 168 [2] = experiment: as above
Procedure, shortened: as §1

S. pneumoniae D39V [3] = experiment: as above
Procedure, shortened: as §1

S. aureus Newman [4] = experiment: Bliss interaction score (quartile over a dose matrix) (fitness difference); higher = more antagonism (negative = synergy)
Procedure, shortened: (§2)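 The Bliss score is observed fitness minus expected fitness, where the expected value is the product of single-drug fitness values inferred from combination data. Fitness is OD595 at entry into stationary phase normalised to the plate's robust no-drug mean and capped at 1. Scores are reported as quartiles spanning technical, biological and donor/recipient replicates.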

S. aureus DSM 20231 = experiment: as above
Procedure, shortened: as §2

B. subtilis 168 [5] = experiment: as above
Procedure, shortened: as §2

S. pneumoniae D39V [6] = experiment: as above
Procedure, shortened: as §2
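Throughout, for Bliss interaction score (quartile over a dose matrix): first quartile when negative (synergy) and third quartile when positive (antagonism).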
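Throughout, for fitness (endpoint OD595 vs no drug): OD595 on entry to stationary phase over no-drug wells; at most 1.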

CC1=C(C(=O)O)N2C(=O)[C@@H](NC(=O)[C@H](N)c3ccccc3)[C@H]2SC1 [Cephalexin] + C[n+]1ccc(-c2cc[n+](C)cc2)cc1 [Paraquat]
fitness
Settings	first compound 0.125 µg/mL	first compound 0.25 µg/mL	first compound 0.5 µg/mL	first compound 1 µg/mL
B. subtilis 168 [2], partner 1.25 µg/mL	0.908	0.892	0.924	–
B. subtilis 168 [2], partner 2.5 µg/mL	0.937	0.912	0.902	–
B. subtilis 168 [2], partner 5 µg/mL	0.815	0.795	0.851	–
S. aureus Newman [1], partner 1.25 µg/mL	–	0.986	0.874	0.874
S. aureus Newman [1], partner 2.5 µg/mL	–	0.996	≥ 1	0.918
S. aureus Newman [1], partner 5 µg/mL	–	0.982	0.963	≥ 1

fitness, S. pneumoniae D39V [3], one replicate
Settings	first compound 0.125 µg/mL	first compound 0.25 µg/mL	first compound 0.5 µg/mL	first compound 1 µg/mL	first compound 2 µg/mL	first compound 4 µg/mL
partner 1.5 µg/mL	0.999	0.982	0.998	0.828	0.21	0.0243
partner 3 µg/mL	0.909	0.913	0.928	0.865	0.286	0.0238
partner 6 µg/mL	0.896	0.897	0.9	0.861	0.328	0.0875

Settings	Bliss interaction score
B. subtilis 168 [5]	0.0473
S. aureus DSM 20231	0.0584
S. aureus Newman [4]	0.0521
S. pneumoniae D39V [6]	0.135

CC1=C(C(=O)O)N2C(=O)[C@@H](NC(=O)[C@H](N)c3ccccc3)[C@H]2SC1 [Cephalexin] + Cc1cc(NS(=O)(=O)c2ccc(N)cc2)no1 [Sulfamethoxazol]
fitness
Settings	first compound 0.125 µg/mL	first compound 0.25 µg/mL	first compound 0.5 µg/mL	first compound 1 µg/mL
B. subtilis 168 [2], partner 1 µg/mL	0.951	0.924	0.895	–
B. subtilis 168 [2], partner 2 µg/mL	0.904	0.937	0.902	–
B. subtilis 168 [2], partner 4 µg/mL	0.955	0.929	0.945	–
S. aureus Newman [1], partner 1 µg/mL	–	≥ 1	0.988	1
S. aureus Newman [1], partner 2 µg/mL	–	≥ 1	0.979	0.983
S. aureus Newman [1], partner 4 µg/mL	–	0.999	≥ 1	≥ 1

fitness, one replicate
Settings	first compound 0.125 µg/mL	first compound 0.25 µg/mL	first compound 0.5 µg/mL	first compound 1 µg/mL	first compound 2 µg/mL	first compound 4 µg/mL
B. subtilis 168 [2], partner 0.5 µg/mL	–	0.987	≥ 1	≥ 1	–	–
B. subtilis 168 [2], partner 1 µg/mL	–	–	–	0.861	–	–
B. subtilis 168 [2], partner 2 µg/mL	–	–	–	0.809	–	–
S. aureus Newman [1], partner 2 µg/mL	–	–	–	–	≥ 1	–
S. aureus Newman [1], partner 4 µg/mL	–	–	–	–	≥ 1	–
S. aureus Newman [1], partner 8 µg/mL	–	–	0.944	≥ 1	≥ 1	–
S. pneumoniae D39V [3], partner 1 µg/mL	0.92	0.925	0.933	0.678	0.0509	0
S. pneumoniae D39V [3], partner 2 µg/mL	0.961	0.937	0.979	0.717	0.165	0.0786
S. pneumoniae D39V [3], partner 4 µg/mL	0.963	0.972	0.954	0.685	0.209	0.013

Settings	Bliss interaction score
B. subtilis 168 [5]	0.0517
S. aureus DSM 20231	0.059
S. aureus Newman [4]	-0.021
S. pneumoniae D39V [6]	0.0504

CC1=C(C(=O)O)N2C(=O)[C@@H](NC(=O)[C@H](N)c3ccccc3)[C@H]2SC1 [Cephalexin] + Cc1ncc([N+](=O)[O-])n1CCO [Metronidazole]
fitness
Settings	partner 0.625 µg/mL	partner 1.073 µg/mL	partner 1.25 µg/mL	partner 2.145 µg/mL	partner 2.5 µg/mL	partner 4.29 µg/mL
B. subtilis 168 [2], first compound 0.125 µg/mL	0.958	–	0.936	–	0.963	–
B. subtilis 168 [2], first compound 0.25 µg/mL	0.94	–	0.91	–	0.86	–
B. subtilis 168 [2], first compound 0.5 µg/mL	0.943	–	0.932	–	0.926	–
S. aureus Newman [1], first compound 0.25 µg/mL	0.962	–	≥ 1	–	≥ 1	–
S. aureus Newman [1], first compound 0.5 µg/mL	0.994	–	0.984	–	≥ 1	–
S. aureus Newman [1], first compound 1 µg/mL	≥ 1	–	≥ 1	–	≥ 1	–
S. pneumoniae D39V [3], first compound 4 µg/mL	–	0.0041	–	0.0332	–	0.0078

fitness, one replicate
Settings	first compound 0.125 µg/mL	first compound 0.25 µg/mL	first compound 0.5 µg/mL	first compound 1 µg/mL
S. aureus Newman [1], partner 0.781 µg/mL	–	0.989	≥ 1	≥ 1
S. aureus Newman [1], partner 1.562 µg/mL	–	≥ 1	≥ 1	≥ 1
S. aureus Newman [1], partner 3.124 µg/mL	–	0.998	≥ 1	≥ 1
S. pneumoniae D39V [3], partner 1.25 µg/mL	≥ 1	0.989	≥ 1	–
S. pneumoniae D39V [3], partner 2.5 µg/mL	≥ 1	≥ 1	≥ 1	–
S. pneumoniae D39V [3], partner 5 µg/mL	0.971	≥ 1	≥ 1	–

Settings	Bliss interaction score
B. subtilis 168 [5]	-0.0395
S. aureus DSM 20231	0.0322
S. aureus Newman [4]	0.0215
S. pneumoniae D39V [6]	0.132

CC1=C(C(=O)O)N2C(=O)[C@@H](NC(=O)[C@H](N)c3ccccc3)[C@H]2SC1 [Cephalexin] + Cc1onc(-c2ccccc2)c1C(=O)N[C@@H]1C(=O)N2[C@@H]1SC(C)(C)[C@@H]2C(=O)O [Oxacillin]
Settings	fitness
B. subtilis 168 [2], first compound 0.125 µg/mL, partner 0.002 µg/mL	0.975
B. subtilis 168 [2], first compound 0.125 µg/mL, partner 0.004 µg/mL	0.879
B. subtilis 168 [2], first compound 0.125 µg/mL, partner 0.008 µg/mL	0.896
B. subtilis 168 [2], first compound 0.25 µg/mL, partner 0.002 µg/mL	0.911
B. subtilis 168 [2], first compound 0.25 µg/mL, partner 0.004 µg/mL	0.948
B. subtilis 168 [2], first compound 0.25 µg/mL, partner 0.008 µg/mL	0.879
B. subtilis 168 [2], first compound 0.5 µg/mL, partner 0.002 µg/mL	0.925
B. subtilis 168 [2], first compound 0.5 µg/mL, partner 0.004 µg/mL	0.961
B. subtilis 168 [2], first compound 0.5 µg/mL, partner 0.008 µg/mL	0.97
S. aureus Newman [1], first compound 0.25 µg/mL, partner 0.0156 µg/mL	0.803
S. aureus Newman [1], first compound 0.25 µg/mL, partner 0.0312 µg/mL	0.761
S. aureus Newman [1], first compound 0.25 µg/mL, partner 0.0625 µg/mL	0.727
S. aureus Newman [1], first compound 0.5 µg/mL, partner 0.0156 µg/mL	0.768
S. aureus Newman [1], first compound 0.5 µg/mL, partner 0.0312 µg/mL	0.749
S. aureus Newman [1], first compound 0.5 µg/mL, partner 0.0625 µg/mL	0.675
S. aureus Newman [1], first compound 1 µg/mL, partner 0.0156 µg/mL	0.721
S. aureus Newman [1], first compound 1 µg/mL, partner 0.0312 µg/mL	0.72
S. aureus Newman [1], first compound 1 µg/mL, partner 0.0625 µg/mL	0.651
S. pneumoniae D39V [3], first compound 1 µg/mL, partner 0.02 µg/mL	0.171
S. pneumoniae D39V [3], first compound 1 µg/mL, partner 0.04 µg/mL	0.0188
S. pneumoniae D39V [3], first compound 2 µg/mL, partner 0.01 µg/mL	0.1
S. pneumoniae D39V [3], first compound 2 µg/mL, partner 0.02 µg/mL	0.044
S. pneumoniae D39V [3], first compound 2 µg/mL, partner 0.04 µg/mL	0.0313
S. pneumoniae D39V [3], first compound 4 µg/mL, partner 0.01 µg/mL	0.0222
S. pneumoniae D39V [3], first compound 4 µg/mL, partner 0.02 µg/mL	0.0259
S. pneumoniae D39V [3], first compound 4 µg/mL, partner 0.04 µg/mL	0.0275

fitness, one replicate
Settings	first compound 0.125 µg/mL	first compound 0.25 µg/mL	first compound 0.5 µg/mL	first compound 1 µg/mL
B. subtilis 168 [2], partner 0.075 µg/mL	–	0.65	0.551	0.563
B. subtilis 168 [2], partner 0.15 µg/mL	–	0.0401	0.0556	0.0643
B. subtilis 168 [2], partner 0.3 µg/mL	–	0.0429	0.0316	0.051
S. pneumoniae D39V [3], partner 0.01 µg/mL	≥ 1	0.989	0.99	–
S. pneumoniae D39V [3], partner 0.02 µg/mL	0.92	0.897	0.886	–
S. pneumoniae D39V [3], partner 0.04 µg/mL	0.175	0.196	0.124	–

Settings	Bliss interaction score
B. subtilis 168 [5]	0.0457
S. aureus DSM 20231	0.0592
S. aureus Newman [4]	0.0632
S. pneumoniae D39V [6]	-0.216
